Data from ChEMBL document CHEMBL5154837, “Discovery, optimization and evaluation of 1-(indolin-1-yl)ethan-1-ones as novel selective TRIM24/BRPF1 bromodomain inhibitors” (Eur J Med Chem, 2022).
Activity calls are given as the source filed them. The rule behind the calls is not given here.

Legend:
[1] = Apparent permeability of the compound across apical to basolateral side in human Caco-2 cells at 10 uM incubated for 120 mins assessed as drug recovery and measured by LC-MS/MS analysis
[2] = Apparent permeability of the compound across apical to basolateral side in human Caco-2 cells at 10 uM incubated for 120 mins and measured by LC-MS/MS analysis
[3] = Apparent permeability of the compound across basolateral to apical side in human Caco-2 cells at 10 uM incubated for 120 mins assessed as drug recovery and measured by LC-MS/MS analysis
[4] = Apparent permeability of the compound across basolateral to apical side in human Caco-2 cells at 10 uM incubated for 120 mins and measured by LC-MS/MS analysis
[5] = target: T1, Transcription intermediary factor 1-alpha (Homo sapiens, UniProt O15164); experiment: Inhibition of TRIM24 (unknown origin) measured alphascreen assay
T1 sequence (O15164 whole entry): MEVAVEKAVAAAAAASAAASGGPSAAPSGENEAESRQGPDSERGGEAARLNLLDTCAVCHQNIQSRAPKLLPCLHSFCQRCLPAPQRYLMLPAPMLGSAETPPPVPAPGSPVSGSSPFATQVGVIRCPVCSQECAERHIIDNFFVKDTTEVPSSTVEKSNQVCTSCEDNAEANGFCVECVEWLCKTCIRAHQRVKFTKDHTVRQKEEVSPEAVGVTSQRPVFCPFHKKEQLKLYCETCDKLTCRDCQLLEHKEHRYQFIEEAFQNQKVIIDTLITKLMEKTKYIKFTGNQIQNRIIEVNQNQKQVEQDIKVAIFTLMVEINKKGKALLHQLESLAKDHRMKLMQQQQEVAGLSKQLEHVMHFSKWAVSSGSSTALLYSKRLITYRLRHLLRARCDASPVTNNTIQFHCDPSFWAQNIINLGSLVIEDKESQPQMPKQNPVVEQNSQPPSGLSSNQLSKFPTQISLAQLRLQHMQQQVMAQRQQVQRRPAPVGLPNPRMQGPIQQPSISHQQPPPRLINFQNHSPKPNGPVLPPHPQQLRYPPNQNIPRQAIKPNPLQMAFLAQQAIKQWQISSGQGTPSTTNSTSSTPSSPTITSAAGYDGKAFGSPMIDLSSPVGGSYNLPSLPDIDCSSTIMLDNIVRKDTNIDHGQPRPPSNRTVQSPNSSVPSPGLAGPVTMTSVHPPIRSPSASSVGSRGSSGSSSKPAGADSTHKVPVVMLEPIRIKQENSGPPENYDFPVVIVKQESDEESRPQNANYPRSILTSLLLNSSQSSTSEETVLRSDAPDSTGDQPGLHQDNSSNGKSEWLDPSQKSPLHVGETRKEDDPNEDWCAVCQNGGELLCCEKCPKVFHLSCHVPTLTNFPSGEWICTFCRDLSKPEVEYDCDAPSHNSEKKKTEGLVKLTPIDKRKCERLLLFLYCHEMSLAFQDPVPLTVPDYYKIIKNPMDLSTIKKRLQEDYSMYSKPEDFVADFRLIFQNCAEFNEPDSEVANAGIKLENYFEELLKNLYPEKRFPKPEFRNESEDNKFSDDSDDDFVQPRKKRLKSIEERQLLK

[6] = Efflux ratio of apparent permeability from basolateral to apical side over apical to basolateral side in human Caco-2 cells at 10 uM incubated for 120 mins and measured by LC-MS/MS analysis
[7] = test system: CWR22R; experiment: Downregulation of AR-V7 mRNA expression in human 22Rv1 cells at 5 uM measured by RT-PCR analysis; type: functional, cell-based
[8] = test system: CWR22R; experiment: Downregulation of KLK2 mRNA expression in human 22Rv1 cells at 5 uM measured by RT-PCR analysis; type: functional, cell-based
[9] = target: T2, Peregrin (Homo sapiens, UniProt P55201); experiment: Inhibition of BRPF1 (unknown origin) measured alphascreen assay
T2 sequence (P55201 whole entry): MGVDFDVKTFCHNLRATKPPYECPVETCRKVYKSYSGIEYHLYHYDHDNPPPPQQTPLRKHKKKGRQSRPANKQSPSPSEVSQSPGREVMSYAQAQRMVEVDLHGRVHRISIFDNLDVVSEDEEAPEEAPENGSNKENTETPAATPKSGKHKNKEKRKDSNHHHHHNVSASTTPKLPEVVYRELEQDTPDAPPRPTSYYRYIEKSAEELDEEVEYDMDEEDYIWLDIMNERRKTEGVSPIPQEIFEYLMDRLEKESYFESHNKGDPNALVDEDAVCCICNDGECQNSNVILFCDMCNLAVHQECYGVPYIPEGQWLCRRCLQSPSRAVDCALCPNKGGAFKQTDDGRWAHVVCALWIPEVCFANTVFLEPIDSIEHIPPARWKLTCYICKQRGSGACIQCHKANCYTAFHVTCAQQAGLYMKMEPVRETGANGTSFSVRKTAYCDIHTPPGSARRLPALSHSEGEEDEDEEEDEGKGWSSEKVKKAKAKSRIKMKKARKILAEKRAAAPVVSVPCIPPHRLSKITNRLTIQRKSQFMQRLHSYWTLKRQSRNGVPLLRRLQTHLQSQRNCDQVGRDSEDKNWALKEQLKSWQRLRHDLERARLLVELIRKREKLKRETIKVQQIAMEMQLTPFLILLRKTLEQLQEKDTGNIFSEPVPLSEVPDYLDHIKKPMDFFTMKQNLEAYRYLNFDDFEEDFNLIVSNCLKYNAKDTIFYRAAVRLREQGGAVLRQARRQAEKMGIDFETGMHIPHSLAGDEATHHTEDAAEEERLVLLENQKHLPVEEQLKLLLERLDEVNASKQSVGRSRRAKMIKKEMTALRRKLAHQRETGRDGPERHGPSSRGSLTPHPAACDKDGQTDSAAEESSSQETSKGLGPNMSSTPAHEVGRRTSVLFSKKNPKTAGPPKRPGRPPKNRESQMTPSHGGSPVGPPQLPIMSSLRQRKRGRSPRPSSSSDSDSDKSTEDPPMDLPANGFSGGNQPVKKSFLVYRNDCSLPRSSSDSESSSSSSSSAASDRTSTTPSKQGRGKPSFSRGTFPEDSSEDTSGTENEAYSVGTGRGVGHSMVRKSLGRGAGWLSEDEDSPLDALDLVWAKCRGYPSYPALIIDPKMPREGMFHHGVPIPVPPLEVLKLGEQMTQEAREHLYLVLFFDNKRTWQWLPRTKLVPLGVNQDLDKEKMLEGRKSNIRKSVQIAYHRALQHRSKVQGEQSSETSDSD

[10] = test system: LNCaP; experiment: Antiproliferative activity against human LNCaP cells measured after 96 hrs by Cell Titer-Glo assay; type: functional, cell-based
[11] = test system: CWR22R; experiment: Antitumor activity against human 22Rv1 cells xenografted in […] mouse assessed as tumor growth inhibition at 50 mg/kg, ip administered once daily for 21 days; type: functional; conditions: 22Rv1, 504 h, time 21 day, read-out: TGI
[12] = test system: CWR22R; experiment: Inhibition of clonogenicity in human 22Rv1 cells assessed as reduction in colony formation at 1 uM measured by crystal violet staining based analysis; type: functional
[13] = test system: CWR22R; experiment: Downregulation of full-length AR mRNA expression in human 22Rv1 cells at 5 uM measured by RT-PCR analysis; type: functional, cell-based
[14] = Toxicity in […] mouse xenografted with human 22Rv1 cells assessed as body weight loss at 50 mg/kg, ip administered once daily for 21 days; type: organism-based, CWR22R; conditions: in vivo, 504 h, time 21 day
[15] = test system: CWR22R; experiment: Downregulation of C-MYC mRNA expression in human 22Rv1 cells at 5 uM measured by RT-PCR analysis; type: functional, cell-based
[16] = test system: LNCaP; experiment: Suppression of PSA gene expression in human LNCaP cells assessed as mRNA level at 0.4 to 10 uM measured by luciferase gene reporter assay; type: functional, cell-based; conditions: dose 0.4-10 µM
[17] = test system: CWR22R; experiment: Antiproliferative activity against human 22Rv1 cells measured after 96 hrs by Cell Titer-Glo assay; type: functional, cell-based; conditions: 22Rv1, 96 h
[18] = test system: CWR22R; experiment: Downregulation of PSA mRNA expression in human 22Rv1 cells at 5 uM measured by RT-PCR analysis; type: functional, cell-based
[19] = test system: LNCaP C4-2B; experiment: Inhibition of clonogenicity in human LNCaP C4-2B cells assessed as reduction in colony formation at 1 uM measured by crystal violet staining based analysis; type: functional
[20] = test system: LNCaP C4-2B; experiment: Antiproliferative activity against human LNCaP C4-2B cells measured after 96 hrs by Cell Titer-Glo assay; type: functional, cell-based
[21] = test system: CWR22R; experiment: Downregulation of TMPRSS2 mRNA expression in human 22Rv1 cells at 5 uM measured by RT-PCR analysis; type: functional, cell-based

recovery at 2 h, 10 µM [1] [%] | recovery at 2 h, 10 µM [3] [%] | Papp B→A at 2 h, 10 µM [4] [×10⁻⁶ cm/s] | IC50 [5] [nM] | IC50 [10] [nM] | IC50 [20] [nM] | SMILES | IC50 [17] [nM] | other results
78.5 | 99.2 | 20.9 |  |  |  | CC(C)NCC(O)COc1cccc2ccccc12 (stereo not given) [PROPRANOLOL] |  | Papp A→B at 2 h, 10 µM [2]: 22.1 ×10⁻⁶ cm/s
 |  |  | 38400 |  |  | COc1cccc(NS(=O)(=O)c2ccc3c(c2)CCN3C(C)=O)c1 |  | 
88.8 | 98.6 | 8.97 |  |  |  | C[C@H]1O[C@@H](O[C@H]2[C@@H](O)C[C@H](O[C@H]3[C@@H](O)C[C@H](O[C@H]4CC[C@@]5(C)[C@H](CC[C@@H]6[C@@H]5C[C@@H](O)[C@]5(C)[C@@H](C7=CC(=O)OC7)CC[C@]65O)C4)O[C@@H]3C)O[C@@H]2C)C[C@H](O)[C@@H]1O [DIGOXIN] |  | efflux ratio at 2 h, 10 µM [6]: 9.69
 |  |  | 980 | 1070 | 780 | COc1ccc(C2CC2)cc1S(=O)(=O)Nc1ccc2c(c1)CCN2C(C)=O | 820 | Activity [7]: Active; Activity [8]: Active; IC50 [9]: 1160 nM; inhibition in vivo at 50 mg/kg [11]: 53%; inhibition at 1 µM [12]: < 5%; Activity [13]: Active; Activity [14]: Non-Toxic; Activity [15]: Active; Activity [16]: Active; Activity [18]: Active; inhibition at 1 µM [19]: < 5%; Activity [21]: Active
 |  |  |  | 12200 | 13600 | CCCOc1cc(OCCCCN(C)C)cc(Oc2cc3c(cc2NS(=O)(=O)c2ccc(OC)c(OC)c2)n(C)c(=O)n3C)c1 | 10800 | 

SMILES | recovery at 2 h, 10 µM [1] [%] | recovery at 2 h, 10 µM [3] [%] | Papp B→A at 2 h, 10 µM [4] [×10⁻⁶ cm/s] | IC50 [5] [nM] | IC50 [10] [nM] | IC50 [20] [nM] | IC50 [17] [nM] | other results
CC(C)NCC(O)COc1ccc(CC(N)=O)cc1 (stereo not given) [ATENOLOL] | 92.7 | 92.3 |  |  |  |  |  | 
